The target of assay [1] is T1, hGPR35a (Homo sapiens, UniProt Q9HC97).
T1 construct: gene GPR35; FLAG-hGPR35a (N-terminal FLAG tag); with Gα13/Gβ3/Gγ9
As to the kind of experiment: BRET G protein re-association (inverse agonism) in HEK293 cells; effect in HEPG2 cells lost on GPR35 knock-out. It is filed as cell-based.

Assay [2] has as its target T1, hGPR35a. As to the kind of experiment: BRET G protein dissociation (TRUPATH-like) in Flp-In T-REx […] cells expressing FLAG-hGPR35a. The assay is classed as cell-based.

Each structure is given as a SMILES string.

T1 sequence (Q9HC97 whole entry): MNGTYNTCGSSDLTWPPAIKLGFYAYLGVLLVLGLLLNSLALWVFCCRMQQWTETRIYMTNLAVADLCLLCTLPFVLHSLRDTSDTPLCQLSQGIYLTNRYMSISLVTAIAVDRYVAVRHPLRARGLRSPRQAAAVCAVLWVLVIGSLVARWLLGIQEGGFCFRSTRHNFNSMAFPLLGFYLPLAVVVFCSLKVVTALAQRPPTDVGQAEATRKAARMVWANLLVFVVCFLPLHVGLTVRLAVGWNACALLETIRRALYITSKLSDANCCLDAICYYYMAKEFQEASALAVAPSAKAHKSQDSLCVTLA
T1 sequence (Q14344 whole entry partner): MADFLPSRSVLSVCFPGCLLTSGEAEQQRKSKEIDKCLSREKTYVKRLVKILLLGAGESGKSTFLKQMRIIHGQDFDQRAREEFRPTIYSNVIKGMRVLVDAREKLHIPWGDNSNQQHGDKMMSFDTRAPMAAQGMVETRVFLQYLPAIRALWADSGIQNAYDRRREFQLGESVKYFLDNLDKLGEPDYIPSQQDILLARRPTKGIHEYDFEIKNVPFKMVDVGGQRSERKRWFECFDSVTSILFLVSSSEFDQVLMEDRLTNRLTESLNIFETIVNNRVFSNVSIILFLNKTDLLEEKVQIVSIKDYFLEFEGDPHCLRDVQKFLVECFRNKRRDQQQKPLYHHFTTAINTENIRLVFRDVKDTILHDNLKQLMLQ
T1 sequence (P16520 whole entry partner): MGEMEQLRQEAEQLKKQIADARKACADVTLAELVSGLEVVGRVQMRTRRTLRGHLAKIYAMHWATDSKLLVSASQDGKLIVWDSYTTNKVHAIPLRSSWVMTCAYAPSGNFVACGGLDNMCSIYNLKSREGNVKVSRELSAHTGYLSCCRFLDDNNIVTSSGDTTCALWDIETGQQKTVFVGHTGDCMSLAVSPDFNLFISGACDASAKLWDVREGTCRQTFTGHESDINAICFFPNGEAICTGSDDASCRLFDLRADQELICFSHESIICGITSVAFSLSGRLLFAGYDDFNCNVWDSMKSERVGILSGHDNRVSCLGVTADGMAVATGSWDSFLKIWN
T1 sequence (O14610 1-66 partner): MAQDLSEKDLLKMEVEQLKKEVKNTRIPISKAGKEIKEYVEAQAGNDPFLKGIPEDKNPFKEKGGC

With `COC(=O)c1cnn(-c2ccc(F)cc2F)c1C=NNC(=S)NC(C)(C)C` [CID-2745687], the “BRET G protein re-association (inverse agonism) in HEK293 cells; effect in HEPG2” value at hGPR35a [1] was “the BRET signal induced by CID-2745687 increased with receptor plasmid amount”. Compound `N#Cc1cc(NC(=O)C(=O)O)c(Cl)c(NC(=O)C(=O)O)c1` [lodoxamide] had an EC50 on hGPR35a [2] of 1.48 nM. This lies in the single-digit nanomolar range.

The values above are taken from paper PMC11732441, “Biased constitutive signaling of the G protein-coupled receptor GPR35 suppresses gut barrier permeability [drawing 1]” (The Journal of Biological Chemistry, 2024).
